Reference: paper PMC10489938, “Developing an Amide-Spacered Triterpenoid Rhodamine Hybrid of Nano-Molar Cytotoxicity Combined with Excellent Tumor Cell/Non-Tumor Cell Selectivity” (Molecules, 2023)
Where two headings read alike, the source gives them in different places.

Key:
[1] = system: HT29 (colorectal carcinoma); test: SRB cytotoxicity assay, HT29; assay type: cell-based, human; settings: Homo sapiens, HT-29, SRB assay, 72 h of treatment, cut-off 30 μM, read-out: Cytotoxicity (EC50) HT29
Experimental: (§1) Sulforhodamine (SRB) assays were performed to evaluate the cytotoxicity of the compounds. First, the cytotoxicity of the different rhodamines was determined; the results of these assays are compiled in Table 1 and Table 2 and depicted in Figure 1.
(§2) Experimental equipment: as previously described biological assays were performed as previously reported employing cell lines obtained from the Department of Oncology [Martin-Luther-University Halle Wittenberg; they were bought from ATCC [2, 4, 7]]. Rhodamine 101 B, as well as asiatic acid, were obtained from local vendors and used as received.
(§3) For the SRB assay and staining experiments: as previously described.

[2] = system: MCF7 (breast adenocarcinoma); test: SRB cytotoxicity assay, MCF7; assay type: cell-based, human; settings: Homo sapiens, MCF7, SRB assay, 72 h of treatment, cut-off 30 μM, read-out: Cytotoxicity (EC50) MCF7
Experimental: as §1, §2, §3

[3] = system: A2780 (ovarian carcinoma); test: SRB cytotoxicity assay, A2780; assay type: cell-based, human; settings: Homo sapiens, A2780, SRB assay, 72 h of treatment, cut-off 30 μM, read-out: Cytotoxicity (EC50) A2780
Experimental: as §1, §2, §3

[4] = SRB cytotoxicity assay, NIH 3T3; assay type: cell-based, murine; settings: mouse, NIH 3T3 non-malignant fibroblasts, cut-off 30 μM
Experimental: as §1, §2, §3

[5] = system: HeLa (cervical adenocarcinoma); test: SRB cytotoxicity assay, HeLa; assay type: cell-based, human; settings: Homo sapiens, HeLa, SRB assay, 72 h of treatment, cut-off 30 μM, read-out: Cytotoxicity (EC50) HeLa
Experimental: as §1, §2, §3

A375 (melanoma) = test: SRB cytotoxicity assay, A375; assay type: cell-based, human; settings: Homo sapiens, A-375, SRB assay, 72 h of treatment, cut-off 30 μM, read-out: Cytotoxicity (EC50) A375
Experimental: as §1, §2, §3

Structure (SMILES)	EC50 ([1]; Table 1)	EC50 ([2]; Table 1)	EC50 ([3]; Table 1)	EC50 at 72 h ([4]; Table 1, 72 h of treatment)	EC50 ([5]; Table 1)	EC50 (A375 (melanoma); Table 1)	EC50 ([5]; Table 2)	EC50 ([1]; Table 2)	EC50 ([2]; Table 2)	EC50 (A375 (melanoma); Table 2)	EC50 ([3]; Table 2)	EC50 at 72 h ([4]; Table 2, 72 h of treatment)
COc1cccc2c1C(=O)c1c(O)c3c(c(O)c1C2=O)C[C@@](O)(C(=O)CO)C[C@@H]3O[C@H]1C[C@H](N)[C@H](O)[C@H](C)O1 [DX, doxorubicin, reference compound]	0.9 ± 0.2 µM	1.1 ± 0.3 µM	0.02 ± 0.01 µM	11.9 ± 1.3 µM	–	–	–	–	–	–	–	–
CCCN(CCC)c1ccc2c(-c3ccccc3C(=O)O)c3ccc(=[N+](CCC)CCC)cc-3oc2c1 [Rh3, reference compound]	9.3 ± 0.4 µM	6.4 ± 0.4 µM	6.7 ± 0.7 µM	12 ± 0.7 µM	8 ± 0.7 µM	8.2 ± 0.2 µM	–	–	–	–	–	–
CCCCN(CCCC)c1ccc2c(-c3ccccc3C(=O)O)c3ccc(=[N+](CCCC)CCCC)cc-3oc2c1 [Rh4, reference compound]	4.9 ± 0.3 µM	3.08 ± 0.06 µM	3.4 ± 0.1 µM	4.3 ± 0.1 µM	4.3 ± 0.3 µM	4.3 ± 0.1 µM	–	–	–	–	–	–
O=C(O)c1ccccc1C1=c2cc3c4c(c2Oc2c1cc1c5c2CCCN5CCC1)CCC[N+]=4CCC3 [Rh5, rhodamine 101, reference compound]	18.5 ± 1.8 µM	8.2 ± 0.8 µM	8 ± 1.5 µM	11.9 ± 1.3 µM	11.8 ± 1.1 µM	11.2 ± 1.8 µM	–	–	–	–	–	–
CC(=O)OC[C@@]1(C)C2CC[C@]3(C)[C@H](CC=C4[C@@H]5[C@@H](C)[C@H](C)CC[C@]5(C(=O)N5CCN(C(=O)c6ccccc6-c6c7ccc(=[N+](C)C)cc-7oc7cc(N(C)C)ccc67)CC5)CC[C@]43C)[C@@]2(C)C[C@@H](OC(C)=O)[C@@H]1OC(C)=O (stereo partly drawn) [compound 6, (2α,3β,4α)-9-[2-{[4-(2,3,23-Tris(acetyloxy)-urs-12-en-28-oyl)-Piperazinyl]Carbonyl}Phenyl]-3,6-bis(Dimethylamino)-Xanthylium Chloride]	–	–	–	–	–	–	0.7 ± 0.2 µM	0.23 ± 0.08 µM	0.15 ± 0.03 µM	0.15 ± 0.008 µM	0.043 ± 0.008 µM	0.55 ± 0.06 µM
CCN(CC)c1ccc2c(-c3ccccc3C(=O)N3CCN(C(=O)[C@]45CC[C@@H](C)[C@H](C)[C@H]4C4=CC[C@@H]6[C@@]7(C)C[C@@H](OC(C)=O)[C@H](OC(C)=O)[C@@](C)(COC(C)=O)C7CC[C@@]6(C)[C@]4(C)CC5)CC3)c3ccc(=[N+](CC)CC)cc-3oc2c1 (stereo partly drawn) [compound 7]	–	–	–	–	–	–	0.2 ± 0.1 µM	0.026 ± 0.009 µM	0.034 ± 0.009 µM	0.027 ± 0.009 µM	0.0056 ± 0.0006 µM	0.33 ± 0.08 µM
CCCN(CCC)c1ccc2c(-c3ccccc3C(=O)N3CCN(C(=O)[C@]45CC[C@@H](C)[C@H](C)[C@H]4C4=CC[C@@H]6[C@@]7(C)C[C@@H](OC(C)=O)[C@H](OC(C)=O)[C@@](C)(COC(C)=O)C7CC[C@@]6(C)[C@]4(C)CC5)CC3)c3ccc(=[N+](CCC)CCC)cc-3oc2c1 (stereo partly drawn) [compound 8, (2α,3β,4α)-9-[2-{[4-(2,3,23-Tris(Acetyloxy)-urs-12-en-28-oyl)-Piperazinyl]Carbonyl}Phenyl]-3,6-Bis(Dipropylamino)-Xanthylium Chloride]	–	–	–	–	–	–	0.16 ± 0.05 µM	0.031 ± 0.007 µM	0.034 ± 0.005 µM	0.032 ± 0.003 µM	0.0055 ± 0.0005 µM	0.44 ± 0.09 µM
CCCCN(CCCC)c1ccc2c(-c3ccccc3C(=O)N3CCN(C(=O)[C@]45CC[C@@H](C)[C@H](C)[C@H]4C4=CC[C@@H]6[C@@]7(C)C[C@@H](OC(C)=O)[C@H](OC(C)=O)[C@@](C)(COC(C)=O)C7CC[C@@]6(C)[C@]4(C)CC5)CC3)c3ccc(=[N+](CCCC)CCCC)cc-3oc2c1 (stereo partly drawn) [compound 9, (2α,3β,4α)-9-[2-{[4-(2,3,23-Tris(Acetyloxy)-urs-12-en-28-oyl)-Piperazinyl]Carbonyl}Phenyl]-3,6-Bis(Dibutylamino)-Xanthylium Chloride]	–	–	–	–	–	–	0.21 ± 0.05 µM	0.026 ± 0.008 µM	0.05 ± 0.01 µM	0.016 ± 0.003 µM	0.0049 ± 0.0007 µM	0.4 ± 0.1 µM
CC(=O)OC[C@@]1(C)C2CC[C@]3(C)[C@H](CC=C4[C@@H]5[C@@H](C)[C@H](C)CC[C@]5(C(=O)N5CCN(C(=O)c6ccccc6C6=c7cc8c9c(c7Oc7c6cc6c%10c7CCCN%10CCC6)CCC[N+]=9CCC8)CC5)CC[C@]43C)[C@@]2(C)C[C@@H](OC(C)=O)[C@@H]1OC(C)=O (stereo partly drawn) [compound 10]	–	–	–	–	–	–	0.22 ± 0.05 µM	0.05 ± 0.02 µM	0.05 ± 0.01 µM	0.045 ± 0.004 µM	0.009 ± 0.002 µM	0.25 ± 0.05 µM
CC(=O)OC[C@@]1(C)C2CC[C@]3(C)[C@H](CC=C4[C@@H]5[C@@H](C)[C@H](C)CC[C@]5(C(=O)N5CCCN(C(=O)c6ccccc6-c6c7ccc(=[N+](C)C)cc-7oc7cc(N(C)C)ccc67)CC5)CC[C@]43C)[C@@]2(C)C[C@@H](OC(C)=O)[C@@H]1OC(C)=O (stereo partly drawn) [compound 11, (2α,3β,4α)-9-[2-{[4-(2α,3β,23-Tris(Acetyloxy)-urs-12-en-28-oyl)-Homopiperazinyl]Carbonyl}Phenyl]-3,6-Bis(Dimethylamino)-Xanthylium Chloride]	–	–	–	–	–	–	0.4 ± 0.1 µM	0.02 ± 0.01 µM	0.028 ± 0.005 µM	0.039 ± 0.003 µM	0.0032 ± 0.0004 µM	0.3 ± 0.1 µM
CCN(CC)c1ccc2c(-c3ccccc3C(=O)N3CCCN(C(=O)[C@]45CC[C@@H](C)[C@H](C)[C@H]4C4=CC[C@@H]6[C@@]7(C)C[C@@H](OC(C)=O)[C@H](OC(C)=O)[C@@](C)(COC(C)=O)C7CC[C@@]6(C)[C@]4(C)CC5)CC3)c3ccc(=[N+](CC)CC)cc-3oc2c1 (stereo partly drawn) [compound 12, (2α,3β,4α)-9-[2-{[4-(2α,3β,23-Tris(Acetyloxy)-urs-12-en-28-oyl)-Homopiperazinyl]Carbonyl}Phenyl]-3,6-Bis(Diethylamino)-Xanthylium Chloride]	–	–	–	–	–	–	0.0177 ± 0.0049 µM	0.0055 ± 0.0023 µM	0.0071 ± 0.0021 µM	–	0.0008 ± 0.0001 µM	0.065 ± 0.0262 µM
CCCN(CCC)c1ccc2c(-c3ccccc3C(=O)N3CCCN(C(=O)[C@]45CC[C@@H](C)[C@H](C)[C@H]4C4=CC[C@@H]6[C@@]7(C)C[C@@H](OC(C)=O)[C@H](OC(C)=O)[C@@](C)(COC(C)=O)C7CC[C@@]6(C)[C@]4(C)CC5)CC3)c3ccc(=[N+](CCC)CCC)cc-3oc2c1 (stereo partly drawn) [compound 13, (2α,3β,4α)-9-[2-{[4-(2α,3β,23-Tris(Acetyloxy)-urs-12-en-28-oyl)-Homopiperazinyl]Carbonyl}Phenyl]-3,6-Bis(Dipropylamino)-Xanthylium Chloride]	–	–	–	–	–	–	0.041 ± 0.009 µM	0.006 ± 0.001 µM	0.01 ± 0.001 µM	0.0039 ± 0.0006 µM	0.0011 ± 0.0001 µM	0.1 ± 0.05 µM
CCCCN(CCCC)c1ccc2c(-c3ccccc3C(=O)N3CCCN(C(=O)[C@]45CC[C@@H](C)[C@H](C)[C@H]4C4=CC[C@@H]6[C@@]7(C)C[C@@H](OC(C)=O)[C@H](OC(C)=O)[C@@](C)(COC(C)=O)C7CC[C@@]6(C)[C@]4(C)CC5)CC3)c3ccc(=[N+](CCCC)CCCC)cc-3oc2c1 (stereo partly drawn) [compound 14, (2α,3β,4α)-9-[2-{[4-(2α,3β,23-Tris(Acetyloxy)-urs-12-en-28-oyl)-Homopiperazinyl]Carbonyl}Phenyl]-3,6-Bis(Dibutylamino)-Xanthylium Chloride]	–	–	–	–	–	–	0.15 ± 0.05 µM	0.025 ± 0.005 µM	0.049 ± 0.006 µM	0.014 ± 0.001 µM	0.0045 ± 0.0004 µM	0.2 ± 0.1 µM
CC(=O)OC[C@@]1(C)C2CC[C@]3(C)[C@H](CC=C4[C@@H]5[C@@H](C)[C@H](C)CC[C@]5(C(=O)N5CCCN(C(=O)c6ccccc6C6=c7cc8c9c(c7Oc7c6cc6c%10c7CCCN%10CCC6)CCC[N+]=9CCC8)CC5)CC[C@]43C)[C@@]2(C)C[C@@H](OC(C)=O)[C@@H]1OC(C)=O (stereo partly drawn) [compound 15]	–	–	–	–	–	–	0.08 ± 0.03 µM	0.01 ± 0.006 µM	0.019 ± 0.006 µM	0.008 ± 0.001 µM	0.0031 ± 0.0005 µM	0.14 ± 0.05 µM
